Assays:
[1] = system: HCT-116, SW-620, and HT-29 cells; experiment: Western blotting of p-Vimentin/Vimentin after transient 5-FU treatment; type: cell-based; conditions: 5-FU 1 µM (sub-toxic), 24 h; range over HCT-116, SW-620, HT-29 cells; densitometry
Description: Vimentin belongs to the family of intermediate filament proteins that are known to function in maintaining the shape as well as the integrity of the normal mesenchymal cells[33],[34]. However, it has been established to regulate the cell shape and migration capability during EMT, a phenomenon critical to metastasis of cancer cells[35],[36]. To investigate any plausible contribution of Vimentin to 5-FU resistance in CRC, we treated a panel of three epithelial colorectal carcinoma cell lines (HCT-116, SW-620, and HT-29) with increasing concentrations of the said drug, transiently (24 h). Western blots were generated for the whole-cell lysates obtained from the above set of experiments. Since the phosphorylated Vimentin is an important signal transducer during the EMT process, we analyzed p-Vimentin (ser38) as well as total Vimentin levels in these lysates.
Fig. 1 Vimentin activation and the onset of EMT in CRC cells transiently exposed to 5-FU, as well as in 5-FU-resistant population. […] F Quantification of the number of invaded cells per field from the above invasion assay experiment. n = 3, error bars: mean ± SD; ***P < 0.001. […]
We adhered to the previously published protocol for western blotting. […] Bradford assay was performed to quantify the protein concentration. […]

[2] = system: orthotopic rat colorectal carcinoma; conditions: 25 mg/kg thrice a week for 3 weeks
Description: To examine the antitumor and anti-metastatic efficacy of 4DPG in vivo, we employed a carcinogen-induced orthotopic rat colorectal carcinoma model. […] The schematic representation briefly describes the steps involved in the generation of orthotopic colorectal tumors along with the treatment strategy and further analysis (details in “Materials and methods”). The animals were euthanized at the end of the experiment and evaluated for tumor and metastatic burden (Fig. 4A). […] To validate whether our in vitro observations on mechanistic inhibition of EMT and invasion by 4DPG hold true in vivo, we performed immunohistochemical analysis of the tumor tissues acquired from the saline and 4DPG-treated animal groups.
A Model depicting the procedure adopted for generating the carcinogen-induced orthotopic rat CRC model, treatment strategies of 4DPG, evaluation of tumor burden, and further biochemical analysis. B Representative images of large bowel showing the colorectal tumor growth in saline, 5-FU (25 mg/kg), and 4DPG (25 mg/kg) treated groups of animals. C, D Quantification of tumor volume and number of polyps per rat in above groups of animals. n = 6 rats per group, error bars: mean ± SD; *P < 0.05, **P < 0.01, ***P < 0.001. E Representative images of the lungs dissected from the above groups of animals showing metastatic tumor burden. Orange arrows indicating bumps of secondary tumors over each lobe of lungs. F, G Quantification of a number of macroscopic secondary tumors over the lung tissues and lung weight in the above groups of animals. n = 6 rats per group, error bars, mean ± SD; **P < 0.01, ***P < 0.001. […] Scale bar: 50 µm. I Western blots depicting expression of p-Chk2 (Thr68), Chk2, p53, p-Vimentin (Ser38), and Vimentin in tumor tissues obtained from saline- and 4DPG-treated groups of animals. β-Actin expression was taken as endogenous loading control. J Densitometry analysis of the above western blot bands portraying relative protein expression of the markers presented. n = 3, error bars: mean ± SD; **P < 0.01, ***P < 0.001.
Animal studies were performed following the guidelines approved by Institutional Animal Ethics Committee (IAEC No. 51/02/15) of CSIR-Indian Institute of Integrative Medicine, Jammu, India. The experiment was performed according to our standardized protocol described previously with necessary modifications. Five-weeks-old healthy male Wistar rats (body weight 150–200 g) were maintained in aseptic condition with free access to food and water. Animals were randomized into three groups, with six animals per group. All the rats received intrarectal instillation of 0.5 mL of freshly prepared 0.4% aqueous solution of N-methyl-N-nitrosourea (MNU) thrice a week for 3 weeks, for the orthotopic induction of colorectal tumors. The solution was injected using sterile syringe with attached 8-cm long rubber catheter tube inserted two-thirds into the colon lumen through anal orifice, as described previously. The animals were kept under continuous monitoring, and the body weight was measured once per week. Following 22 weeks after the initiation of MNU administration, treatment regimens were started by administering 5-FU (25 mg/kg), and 4DPG (25 mg/kg) thrice a week for 3 weeks. The control and treatment groups of animals were dosed separately by three independent investigators and the outcomes were assessed by a fourth investigator blind about the dosing process and treatment regimen.

SW-620/5-FU-R cells [3] = experiment: Acquired 5-FU resistance (MTT cytotoxicity assay); type: cell-based; conditions: cells selected with increasing 5-FU for at least 20 weeks
Experimental: (§1) Previously described procedure by Shukla et al. was followed with minor modifications. In brief, wild-type CRC cells (HCT-116, SW-620, and HT-29) were cultured with increasing concentrations of 5-FU for at least 20 weeks. The acquired drug resistance was tested periodically by determining the half maximal inhibitory concentration (IC50) of 5-FU through MTT cytotoxicity assays.
(§2) The experiments were performed using the wild-type and 5-FU-RCRC cells following our standardized protocols, as described previously[56],[57].

HCT-116/5-FU-R cells [4] = experiment: Acquired 5-FU resistance (MTT cytotoxicity assay); type: cell-based; conditions: cells selected with increasing 5-FU for at least 20 weeks
Experimental: as §1, §2

HT-29/5-FU-R cells = experiment: Acquired 5-FU resistance (MTT cytotoxicity assay); type: cell-based; conditions: cells selected with increasing 5-FU for at least 20 weeks
Experimental: as §1, §2

SW-620/5-FU-R cells [5] = experiment: Immunocytochemistry of Vimentin; type: cell-based; conditions: PV1019 alone, 48 h
Description: 4DPG, a podophyllotoxin class of natural product anticancer compound (Supplementary Fig. S2A) has been recently described by our research group for its potent antitumor and anti-metastatic properties against aggressive cancers[31],[32]. Further, 4DPG augments phosphorylation and activation of Chk2 (Thr68) leading to suppression of EMT and invasiveness of p53-defective cancer cells. To investigate the effect of 4DPG on phosphorylation and expression levels of Chk2 in HCT-116/5-FU-R, SW-620/5-FU-R, and HT-29/5-FU-R cells, we treated these cells for 48 h with increasing concentrations of the compound, and whole-cell lysates were subjected to western blotting analysis. […] To determine the effect of 4DPG on the invasion abilities of these 5-FU-R cells, we performed in situ fluorescent gelatin degradation assay following our pre-standardized protocol[31],[37]. In physiological conditions, this assay mimics the extracellular matrix degradation by aggressive tumor cells undergoing invasion–metastasis process.
(§3) To examine whether 4DPG-mediated repression of Vimentin and invasiveness is a Chk2-dependent process, we performed genetic silencing of endogenous Chk2 in the 5-FU-R cells using target-specific SiRNAs.
(§4) Fig. 3 Chk2-dependent role of 4DPG in modulating p53 and repressing Vimentin expression in 5-FU-R cells. A Immunocytochemistry results showing the Vimentin expression level in SW-620/5-FU-R cells treated/transfected with scramble, SiChk2, scramble plus 4DPG, SiChk2 plus 4DPG, vehicle, PV1019, 4DPG, and PV1019 plus 4DPG for 48 h. Scale bars: 50 µm. […] C Matrigel invasion assay results showing invaded HCT-116/5-FU-R and SW-620/5-FU-R cells following 48 h of transient transfection with GFP and GFP-Chk2 plasmid construct. Scale bars: 50 µm. D Quantification of the number of invaded cells per field from the above experimental conditions. n = 3, error bars, mean ± SD; *P < 0.05, ***P < 0.001. E Immunocytochemistry results displaying Vimentin expression levels in HCT-116/5-FU-R and SW-620/5-FU-R cells after 48 h of transient transfection with pCDNA3 and/or HA-Chk2 plasmid construct. Scale bars: 50 µm. F Immunoprecipitation with Vimentin or p53 followed by western blotting analysis of p53 in SW-620/5-FU-R cells treated with vehicle and/or 4DPG (300 nM) for 48 h. G Cytosolic (left panel) and nuclear (right panel) extracts of SW-620/5-FU-R cells treated with vehicle and/or 4DPG (300 nM) for 48 h showing protein expression of Vimentin and p53. Tubulin and lamin expression was considered as endogenous loading controls for cytosolic and nuclear fractions, respectively.
We followed the standard protocol with some modifications for immunocytochemistry[56],[58]. In brief, cells, at a density of 4 × 10^5 cells/well, were seeded over the sterile coverslips placed in six-well plates. Following the respective treatment, cells were washed thrice with PBS. Next, the cells were fixed with 4% paraformaldehyde (pH = 7.4) for 15 min, permeabilized with 0.3% Triton X-100 for 10 min, and then blocked with 1% goat serum for 30 min. Consequently, the cells were incubated with anti-Vimentin antibody overnight at 4 °C, at a dilution of 1:100, followed by washing with PBST and further incubation with secondary anti-rabbit Alexa Fluor 488 (1:750 dilution). After subsequent washing and mounting, the images were captured at ×20 magnification under Floid Cell Imaging Station (Invitrogen).

HCT-116/5-FU-R cells [6] = experiment: Matrigel invasion assay; type: cell-based; conditions: PV1019-treated, 48 h
Description: as §3
as §4, with “G Cytosolic (left panel) and nuclear (right panel) extracts of SW-620/5-FU-R cells treated with vehicle and/or 4DPG (300 nM) for 48 h showing protein expression of Vimentin and p53. Tubulin and lamin expression was considered as endogenous loading controls for cytosolic and nuclear fractions, respectively.” left out

Structure (SMILES)	boost in p-Vimentin (ser38) [1]	increase in Vimentin expression level [1]	lung metastases [2]	average number of polyps ([2]; control group 16)	mean tumor volume ([2]; saline control 820.6 mm^3)	acquired resistance up to (5-FU concentration) (SW-620/5-FU-R cells [3])	acquired resistance up to (5-FU concentration) (HCT-116/5-FU-R cells [4])	acquired resistance up to (5-FU concentration) (HT-29/5-FU-R cells)	Vimentin level (immunocytochemistry) (SW-620/5-FU-R cells [5])	number of invaded cells (HCT-116/5-FU-R cells [6])
O=c1[nH]cc(F)c(=O)[nH]1 [5-FU, 5-fluorouracil]	2–7.8 fold	2.1–8.5 fold	could not restrict the metastatic spread	8	231 mm^3	≤ 60 µM	up to 50 µM	≤ 45 µM	–	–
CC(=NNC(=N)N)c1ccc(NC(=O)c2cc3cccc([N+](=O)[O-])c3[nH]2)cc1 [PV1019, 7-nitro-1H-indole-2-carboxylic acid {4-[1-(guanidinohydrazone)-ethyl]-phenyl}-amide, reference compound]	–	–	–	–	–	–	–	–	increased Vimentin level	remarkable increase
